Laboratory results: patent US9675072B2, “Tetrazolinone compound and application of same” (SUMITOMO CHEMICAL COMPANY, LIMITED, priority 2013, dated 2017)

Tests used:
Type in all cases: in vivo
[1] = test system: wheat leaf blotch fungus (Septoria tritici); assay: Wheat leaf blotch control test, foliage spray on wheat; conditions: Test Example 11; 200 ppm foliage spray; wheat (APOGEE); inoculated 4 days after spraying
[2] = test system: wheat rust fungus (Puccinia recondita); assay: Wheat rust control test, foliage spray on wheat; conditions: Test Example 8; 200 ppm foliage spray; wheat (SHIROGANE); inoculated 5 days after spraying
Description: (§1) The control effect was evaluated by visually observing the area of lesion spots on each of test plants at the time of investigation, and comparing the area of lesion spots on a plant treated with the present control agent with that on an untreated plant. The untreated plant is a plant tested under the same conditions as in Test Examples, except that foliage application of a diluted solution of a formulation containing the present compound with water is not performed.
Each of plastic pots was filled with sandy loam and wheat (cultivar: SHIROGANE) was sowed and grown in a greenhouse for 9 days. Each of the present compounds 1 to 5, 11, and 1 was diluted with water to adjust to a predetermined concentration of 500 ppm. The obtained diluted solution was sprayed over stems and leaves of the wheat so that they sufficiently adhered to the surface of the leaves of the wheat. After spraying, the plant was air-dried and cultivated at 20° C. for 5 days under illumination, and then inoculated by sprinkling with spores of wheat rust fungus (Puccinia recondita). After the inoculation, the plant was left to stand at 23° C. for one day under dark and high humidity condition, and cultivated under illumination at 20° C. for 8 days, and then the area of lesion spots was investigated. […]

[3] = test system: rice blast fungus (Magnaporthe grisea); conditions: Test Example 7; 200 ppm foliage spray; rice (NIHONBARE); 6 days in contact with infected seedlings
[4] = test system: barley net blotch fungus (Pyrenophora teres); assay: Barley net blotch control test, foliage spray on barley; conditions: barley (MIKAMO GOLDEN), inoculated 2 days after spraying
Description: as §1
Each of plastic pots was filled with sandy loam and barley (cultivar: MIKAMO GOLDEN) was sowed and grown in a greenhouse for 7 days. Each of the present compounds 1 to 8, 10 to 12, and 14 was diluted with water to adjust to a predetermined concentration of 500 ppm. The obtained diluted solution was sprayed over stems and leaves of the barley so that it sufficiently adhered to the surface of the leaves of the barley. After spraying, the plant was air-dried. After 2 days, an aqueous suspension containing spores of barley net blotch fungus (Pyrenophora teres) was sprayed to inoculate the spores. After completion of the inoculation, the plant was left to stand for 3 days in a greenhouse at 23° C. in the daytime and 20° C. at night under high humidity condition and cultivated in a greenhouse for 7 days, and then the area of lesion spots was investigated. […]

[5] = test system: cucumber powdery mildew fungus (Sphaerotheca fuliginea, a QoI-resistant strain, cytochrome b position 143 glycine to alanine); assay: Cucumber powdery mildew control test, foliage spray on cucumber; conditions: Test Example 6, 500 ppm foliage spray, cucumber (SAGAMI HANJIRO), 8 days after inoculation

COc1c(C(F)F)c(-c2ccc(OCc3ccccc3-n3nnn(C)c3=O)c(C)c2)nn1C [compound 9]
≤ 30%: area of lesion spots on treated plant relative to untreated plant [1]

COc1cc(-c2cc(C)c(OCc3ccccc3-n3nnn(C)c3=O)cc2C)nn1C [compound 14]
≤ 30%: area of lesion spots on treated plant relative to untreated plant [2] | lesion area on treated plant with respect to the lesion area on the non-treated plant [3] | area of lesion spots on treated plant relative to untreated plant ([4]; Test Example 3, 500 ppm foliage spray) | area of lesion spots on treated plant relative to untreated plant ([4]; Test Example 9, 200 ppm foliage spray) | area of lesion spots on treated plant relative to untreated plant [5]
